Consider eight compounds from patent US8158828B2, “Nuclear receptor binding agents” (priority 2005, dated 2012).

Molecules are shown by their SMILES.

One data set deals with CCRF/CEM. As to conditions: estrogen receptor-negative cell line; cited from earlier work.
Data set [1] relates to TRAP positive multinucleated osteoclasts. The data set can be described thus: TRAP positive multinucleated osteoclasts from bone marrow cells. It counts as cell-based, rat. The note with it: RANKL and GMCSF, 12 days. As for the experimental part:
FIG. 7: Effect of the indicated compounds on TRAP positive multinucleated osteoclasts. Bone marrow cells from rat femur was cultured in Alpha MEM+10% csFBS without phenol red in the presence or absence of 30 ng/ml RANKL and 10 ng/ml GMCSF. The cells were treated for 12 days and were stained for tartarate resistant acid phosphatase activity (TRAP) and multinucleated osteoclasts were counted.
Bone marrow cells isolated from rat femur were cultured in Alpha MEM without phenol red+10% sterile FBS without phenol red in the presence or absence of […] RANKL and 10 ng/ml GMCSF. The cells were treated for 12 days were stained for tartarate resistant acid phosphatase activity (TRAP) positive multinucleated osteoclasts and were counted.

Data set [2] relates to pS2 (gene encoding the trefoil peptides) in MCF-7 cells. The data set can be described thus: pS2 gene expression in MCF-7 cells (realtime RT-PCR). As to conditions: 16 hrs. Format: cell-based. The protocol: MCF-7 cells were plated at 500,000 cells per well of a 6 well plate. RNA was isolated and the message levels of pS2 (gene encoding the trefoil peptides) measured and normalized to 18S ribosomal RNA by realtime polymerase chain reaction (rtPCR).
FIG. 11: Agonistic activity of the indicated compounds in MCF-7 cells. MCF-7 cells were plated at 500,000 cells per well of a 6 well plate. RNA was isolated and the message levels of pS2 gene measured and normalized to 18S ribosomal RNA by realtime rtPCR.
MCF-7 cells were plated at 500,000 cells per well of a 6 well plate. The cells were serum starved for 3 days and then were treated as above for 16 hrs. RNA was isolated and gene expression levels assessed by realtime RT-PCR, following normalization to 18S ribosomal RNA.

For data set [3] the following is noted: rats; cited from earlier work.
Another data set deals with T1, ER-β (Rattus norvegicus, UniProt Q62986).
T1 construct: expressed in transfected cells; host or cells: COS or 293 cells
Put plainly: ER-β transactivation, ERE-LUC in COS or 293 cells. It counts as cell-based. The note with it: COS or 293 cells. The protocol: FIG. 2: Effect of the indicated compounds on ER-β transactivation. COS or 293 cells plated in DME without phenol red+10% csFBS at 90,000 cells per well of a 24 well plate were transfected with 0.25 μg ERE-LUC, 0.02 μg CMV-LUC (Renilla) and 50 ng of ER-β by lipofectamine. Twenty four hours after transfection, the cells were treated as indicated in the figure, harvested 48 hrs after transfection and were assayed for firefly and renilla luciferase.
FIG. 6: Effect of the indicated compounds on ER-β transactivation. COS or 293 cells plated in DME without phenol red+10% csFBS at 90,000 cells per well of a 24 well plate were transfected with 0.25 μg ERE-LUC, 0.02 μg CMV-LUC (Renilla) and 50 ng of ER-β by lipofectamine. Twenty four hours after transfection, the cells were treated as indicated in the figure, harvested 48 hrs after transfection and assayed for firefly and renilla luciferase.
FIG. 10: Effect of the indicated compounds on ER-β transactivation. COS or 293 cells plated in DME+10% csFBS at 90,000 cells per well of a 24 well plate were transfected with 0.25 μg ERE-LUC, 0.02 μg CMV-LUC (Renilla) and 50 ng of ER-β by lipofectamine. Twenty four hours after transfection, the cells were treated as indicated in the figure, harvested 48 hrs after transfection and were assayed for firefly and renilla luciferase.
(§1) All the receptors were cloned from rat tissue into the PCR3.1 vector backbone. […] Cells were harvested 48 hrs after transfection, and assayed for firefly and Renilla luciferase activity.
as §1

Data set [4] can be described thus: Metabolic stability in human liver microsomes. As to conditions: 1 μM substrate, 0.5 mg/mL microsomes. As for the experimental part: Each substrate or reference control was dissolved at a concentration of 10 mM in DMSO, from which a 5 μM spiking solution was prepared by dilution in water. Substrates (1 μM) were incubated in the presence of human liver microsomes (Xenotech LLC, Kansas City Mo.) at 0.5 mg/mL fortified with an NADPH regenerating system at 37° C. and pH 7.4. The NADPH regenerating system consisted of glucose-6-phosphate dehydrogenase (1 units/mL) in 0.05M K2HPO4. Duplicate incubations were performed in 96-well polypropylene cluster tubes in a final volume of 250 μL per reaction. At 0, 2, 4, 6, 10, 30, and 60 minutes a stop solution (300 μL acetonitrile) was added to aliquots of the reaction mixture. Precipitated protein was removed by centrifugation (3000 rpm for 15 minutes) and the supernatants were transferred to clean 96-well plates for analysis.
The samples were injected onto a Phenomenex Luna hexylphenyl 50×2 mm i.d. 5 uM, column fitted with a guard column. An isocratic mobile phase consisting of 50% acetonitrile and 0.1% formic acid in water was used at a flow rate of 0.3 mL/min. The protonated molecular ion (M+H)^+ of the analyte was monitored by MDS/Sciex API 4000QTrap triple quadrupole mass spectrometer using electrospray positive mode ionization with a temperature of 500° C. and a spray voltage of 4000V. Total analysis time was 1.5 min per sample.
Metabolic stability was defined as the amount of substrate metabolized by the incubation with hepatic microsomes and expressed as a percentage of the initial amount of substrate (% remaining) based on peak area. Initial substrate concentration for each analyte was 1 μM. The initial peak area of each substrate was determined at time zero and metabolic stability was assessed based on the change in analyte peak area from time 0 min to a single fixed timepoint for each sample (2-60 min, representative timepoints are shown in Table 2 below).

The next data set concerns uterus. The data set can be described thus: In vivo estrogenic activity, uterine weight. Details: species or system rat. The note with it: female rats, compound alone. The protocol:
Rats that were administered the vehicle alone served as controls.

A further data set deals with T2, ER-α (Rattus norvegicus, UniProt P06211).
T2 sequence (P06211 1-600): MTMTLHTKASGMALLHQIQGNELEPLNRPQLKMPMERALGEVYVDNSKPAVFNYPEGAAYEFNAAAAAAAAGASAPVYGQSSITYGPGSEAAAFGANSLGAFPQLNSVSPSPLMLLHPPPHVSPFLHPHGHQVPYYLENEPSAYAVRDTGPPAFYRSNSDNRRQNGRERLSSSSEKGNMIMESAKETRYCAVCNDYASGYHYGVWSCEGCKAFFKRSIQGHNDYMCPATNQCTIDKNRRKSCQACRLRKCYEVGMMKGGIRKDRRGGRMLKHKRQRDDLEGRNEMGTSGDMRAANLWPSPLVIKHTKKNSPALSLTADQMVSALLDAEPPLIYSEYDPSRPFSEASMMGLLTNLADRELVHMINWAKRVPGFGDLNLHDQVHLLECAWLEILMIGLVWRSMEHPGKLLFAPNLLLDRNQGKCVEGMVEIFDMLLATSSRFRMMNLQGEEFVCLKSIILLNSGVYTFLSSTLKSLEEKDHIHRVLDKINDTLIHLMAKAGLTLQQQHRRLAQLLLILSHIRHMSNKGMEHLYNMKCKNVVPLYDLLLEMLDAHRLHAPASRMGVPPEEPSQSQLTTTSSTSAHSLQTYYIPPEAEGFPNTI
Put plainly: ER-α transactivation, ERE-LUC in COS or 293 cells. Format: cell-based. Details: % estardiol activity, ER-α: dose or concentration left out as unconfirmed. The protocol:
FIG. 1: Effects of the indicated compounds on ER-α transactivation. COS or 293 cells plated in DME without phenol red+10% charcoal stripped fetal bovine serum (csFBS) at 90,000 cells per well of 24 well plates were transfected with 0.25 μg ERE-LUC, 0.02 μg CMV-LUC (Renilla) and 25 ng of ER-α by lipofectamine. Twenty four hours after transfection, the cells were treated as indicated in the figure, harvested 48 hrs after transfection and were assayed for firefly and renilla luciferase.
FIG. 5: Effect of the indicated compounds on ER-α transactivation. COS or 293 cells plated in DME without phenol red+10% csFBS at 90,000 cells per well of a 24 well plate were transfected with 0.25 μg ERE-LUC, 0.02 μg CMV-LUC (Renilla) and […] of ER-α by lipofectamine. Twenty four hours after transfection, the cells were treated as indicated in the figure, harvested 48 hrs after transfection and were assayed for firefly and renilla luciferase.
FIG. 9: Effect of the indicated compounds on ER-α transactivation. COS or 293 cells plated in DME without phenol red+10% csFBS per well of a 24 well plate were transfected with 0.25 μg ERE-LUC, 0.02 μg CMV-LUC (Renilla) and 25 ng of ER-α by lipofectamine. Twenty four hours after transfection, the cells were treated as indicated in the figure, harvested 48 hrs after transfection and were assayed for firefly and renilla luciferase.
Also 25 ng of ER-α (FIGS. 1, 5, and 9), 50 ng of ER-β (FIGS. 2, 6 and 10) or 12.5 ng of AR (FIG. 3) were introduced by lipofectamine. All the receptors were cloned from rat tissue into the PCR3.1 vector backbone. […] Cells were harvested 48 hrs after transfection, and assayed for firefly and Renilla luciferase activity.
Also 25 ng of ER-α), 50 ng of ER-β or 12.5 ng of AR were introduced by lipofectamine. All the receptors were cloned from rat tissue into the PCR3.1 vector backbone. […] Cells were harvested 48 hrs after transfection, and assayed for firefly and Renilla luciferase activity.

The format of data set [5] is in vivo, human. The note with it: 80 mg/day.
A further data set relates to PC-3 cells. Put plainly: Androgen independent prostate cancer cell growth. Format: cell-based. As to conditions: for PC-3 growth inhibition, qualitative grading: in vitro, data not shown. The protocol:
PC-3 cells were plated in RPMI+10% csFBS at 6000 cells per well of a 96 well plate. Medium was changed to RPMI+1% csFBS without phenol red and then treated for 72 hrs with increasing concentrations of SERMs.
The prostate cancer cell line PC-3 was plated in RPMI+10% csFBS at 6000 cells per well of a 96 well plate. Medium was changed to RPMI+1% csFBS without phenol red and cells were treated for 72 hrs with increasing concentrations of SERMs.
PC-3 growth inhibition was determined qualitatively, in vitro, and represented as a grading system based on the ability of the SERMs to inhibit growth. The number −4 is for compounds that induced 100% growth inhibition at 1 uM, −3 for compounds that inhibit growth by about 75-90%, −2 for about 50-70% and −1 for inhibition less than 50% growth.

[6] abbreviates: baseline to month 12, compared to placebo.

T1 sequence (Q62986 whole entry): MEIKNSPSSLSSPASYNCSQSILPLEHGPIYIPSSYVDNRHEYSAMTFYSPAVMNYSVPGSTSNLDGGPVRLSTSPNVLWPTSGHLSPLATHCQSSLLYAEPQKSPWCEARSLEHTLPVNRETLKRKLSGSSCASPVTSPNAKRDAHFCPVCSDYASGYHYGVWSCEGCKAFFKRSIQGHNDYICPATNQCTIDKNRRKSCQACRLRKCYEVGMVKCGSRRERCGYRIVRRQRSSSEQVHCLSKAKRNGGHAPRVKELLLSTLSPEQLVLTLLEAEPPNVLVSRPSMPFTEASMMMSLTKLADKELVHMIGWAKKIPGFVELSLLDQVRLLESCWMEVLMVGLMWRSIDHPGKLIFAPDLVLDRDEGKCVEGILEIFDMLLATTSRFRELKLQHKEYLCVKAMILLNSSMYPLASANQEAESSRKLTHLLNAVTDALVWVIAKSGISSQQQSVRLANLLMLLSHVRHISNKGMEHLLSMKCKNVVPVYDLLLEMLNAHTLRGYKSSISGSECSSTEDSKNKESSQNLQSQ

As for `COc1ccc2c(c1)CCC(c1ccccc1)=C2c1ccc(OCCN2CCCC2)cc1` [nafoxidine], in the data set with CCRF/CEM, the “viability of CCRF/CEM cells” value is listed as “cause a decrease in viability”.

For the compound `C[C@]12CC[C@@H]3c4ccc(O)cc4CC[C@H]3[C@@H]1CC[C@@H]2O` [estrogen, Estradiol, reference compound], the “osteoclast differentiation / osteoclast activity” value in data set [1] is “strongly suppressed osteoclast differentiation”. In addition, the pS2 expression entry in data set [2] was “increased pS2”. Further, the “incidence of lipo-polysaccharide induced inflammatory responses” value in data set [3] was “reduce the incidence of lipo-polysacharride induced inflammatory responses”.

Turning to `O=C(c1ccc(O)cc1)N(c1ccc(O)cc1)c1ccc(O)cc1` [Compound 3a, 4-hydroxy-N,N-bis-(4-hydroxyphenyl)-benzamide], the “ER-β LUC expression, compound alone” value at ER-β was “most potent in stimulating ER-β”. Also, the “% Remaining 0 min” value in [4] (0 min) turned out to be 100%. Besides, the “% Remaining 10 min” value in data set [4] (10 min) was 140%. For the same compound, the “% Remaining 30 min” value in data set [4] (30 min) stood at 118%. Also, in data set [4] (60 min), the “% Remaining 60 min” value is reported as 103%. The “estrogenic activity in terms of uterine weight” value (from here on “estrogenic activity in terms”) in the data set on uterus is “exhibited estrogenic activity, in vivo”. The “osteoclast differentiation / osteoclast activity” value in data set [1] is “suppressed osteoclasts”. Moreover, at ER-α, the “% estardiol activity, ER-α” value was determined as 49.5%.

Regarding `CCN(CC)CCOc1ccc(C(=C(Cl)c2ccccc2)c2ccccc2)cc1` [clomiphene], the “viability of CCRF/CEM cells” value with CCRF/CEM was “cause a decrease in viability”.

In the case of `O=C(c1cccc(O)c1)N(c1ccccc1)c1ccccc1` [Compound 3f, 3-hydroxy-N,N-diphenyl-benzamide], the “estrogenic activity in terms” value with uterus is “exhibited estrogenic activity, in vivo”. Moreover, in data set [2], the pS2 expression result is recorded as “increased pS2 expression levels”.

With `CN(C)CCOc1ccc(/C(=C(/CCCl)c2ccccc2)c2ccccc2)cc1` [toremifene], in data set [1], the “osteoclast differentiation / osteoclast activity” value is “minimally but dose-dependently suppressed the osteoclast differentiation”. In data set [5], the “serum lipid parameters overall” value is “statistically significant improvement in all serum lipid parameters measured”. In addition, in data set [5] (setting [6]), the “change in HDL levels” value was “+5.4%”, the “change in LDL” value is on record as −9.0%, the “change in total circulating cholesterol” value is −7.1% and the “change in triglyceride levels” value was −20.1%. Further, the inhibition at 10 µM in the data set on PC-3 cells (Homo sapiens, PC-3, 10 μM, 72 hrs) amounted to 100%. Besides, in the data set with PC-3 cells, the “PC-3 growth inhibition, qualitative grading” value was −2 (−2 for about 50-70%).

For `CC/C(=C(\c1ccccc1)c1ccc(OCCN(C)C)cc1)c1ccccc1` [tamoxifen], the “viability of CCRF/CEM cells” value with CCRF/CEM is “cause a decrease in viability”. Also, the “incidence of lipo-polysaccharide induced inflammatory responses” value in [3] was “reduce the incidence of lipo-polysacharride induced inflammatory responses”.

In the case of `O=S(=O)(c1ccc(O)cc1)N(c1ccccc1)c1ccccc1` [Compound 3l, 4-hydroxy-N,N-diphenyl-phenyl-sulfonamide], the “estrogenic activity in terms” value with uterus was “exhibited no estrogenic, or anti-estrogenic activity in uterus”. In addition, the “PC-3 growth inhibition, qualitative grading” value in the data set with PC-3 cells was −2 (−2 for about 50-70%). Besides, the pS2 expression result in data set [2] is given as “increased pS2 expression levels”.
